In patent publication US20030171377A1, “Antidiabetic agents” (priority 2001, published 2003):

Assays:
3T3-L1 preadipocytes = assay: 3T3-L1 Adipocyte Differentiation Assay (ADPDIFF), Test A; format: cell-based; conditions: BODIPY lipid fluorescence, reported as % of BRL 49653 at 5 μM
Method: Cells are replenished with FBS containing media on day 5 of post-drug treatment and incubated for additional 4-6 days. Cells are stained with BODIPY a fluorescent lipophilic stain to quantitate the lipid content of the cells. The assay is optimized for a 96-well plate format. Approximately after 10 days of post-drug treatment, cells are fixed in 3% formalin solution for 15 min followed by staining with BODIPY (80 μg/ml) for 20 min at room temperature. The plate is then put through the CYTOFLUOR instrument to measure the fluorescence of BODIPY (excitation=485/20; emission=530/25).

[1] = Blood Glucose Measurement (Glucose Δ), Test D; format: in vivo, mice; parameters: key to Glucose Δ: change in blood glucose, mg/dL; conditions: for Glucose Δ: 4 hours post dose, 4 hour fasted animals, tail vein whole blood; for % BRL (in vivo, beside Glucose Δ): glucose change relative to BRL
Method: Test D—Blood Glucose Measurement (Glucose Δ) Glucose is obtained 4 hours post dose via tail vein stick (5 μl whole blood) in awake, 4 hour fasted animals. Blood is drawn by capillary action into a glucose cuvette and read in a HemoCue Glucose Analyzer (Ryan Diagnostics). Blood is diluted 1:2 with saline if glucose levels are greater than 400 mg/dl (meter high range) and results multiplied by two.

[2] = system: endogenous nuclear receptors in CV-1 cells; assay: CV-1 Native Receptors Transcription Assay (MKNRCV1), Test C; format: cell-based, African green monkey; conditions: for MKNRCV1 % BRL @ 25 μM: percent activity of BRL 49653; for EC50: Chlorocebus sabaeus, CV-1 cells, 48 hours, unit inferred
[3] = system: CV-1 cells (FATP promoter luciferase reporter, 300 nM BRL); assay: ANTCV1 Antagonist Transcription Assay, Test B; format: cell-based, African green monkey; conditions: Chlorocebus sabaeus, 25 μM test compound with 300 nM BRL, 48 hrs, % BRL inhibition, read-out: ANTCV1 INHIB @ 25 μM

Structure (SMILES) | melting point [°C] | ADPDIFF % BRL @ 5 μM (3T3-L1 preadipocytes) [% BRL] | Glucose Δ [1] | % BRL (in vivo, beside Glucose Δ) [1] [% BRL] | MKNRCV1 % BRL @ 25 μM [2] [% BRL] | EC50 [2] [µM] | inhibition at 25 µM [3] [%]
Cc1oc(-c2ccccc2)nc1CCOc1cc(CC(C(=O)O)n2cccc2)on1 (stereo not drawn) [Example 77, 3-{3-[2-(5-Methyl-2-phenyl-oxazol-4-yl)-ethoxy]-isoxazol-5-yl}-2-pyrrol-1-yl-propionic acid] | 143 to 144 | – | – | – | – | – | –
Cc1oc(-c2ccccc2)nc1CCOc1ccc(CC(C(=O)O)n2ccc(C(=O)c3ccccc3)c2)cc1 (stereo not drawn) | – | 102 | −84.4 | 60.8 | 91 | 2.2 | -20
Cc1oc(-c2ccccc2)nc1CCOc1ccc(CC(C(=O)O)n2cccc2)cc1 (stereo not drawn) | – | 67 | −196.0 | 109.4 | 86 | – | –
Cc1oc(-c2ccccc2)nc1CC#Cc1ccc(C[C@@H](C(=O)O)n2cccc2)cc1 | – | 100 | 62.0 | −45.3 | 94 | – | –
Cc1oc(-c2ccccc2)nc1CCOc1ccc(CC(C(=O)O)c2cccnc2)cc1.Cl (stereo not drawn) | – | 132 | −72.5 | 31.1 | 58 | 0.4 | -112
CN(CCOc1ccc(CC(C(=O)O)c2ccccc2)cc1)c1nc2ccccc2o1.Cl (stereo not drawn) | – | 109 | 172.0 | −52.0 | 91 | 1 | -45
CN(CCCc1ccc(C[C@@H](C(=O)O)n2cccc2)cc1)c1ccccc1 | – | 61 | 63.0 | −27.0 | 68 | – | –
CCc1nnc([C@H](Cc2ccc(OCCc3nc(-c4ccccc4)oc3C)cc2)n2cccc2)o1 | – | 88 | 46.5 | −20.0 | 12 | – | 53.8
CN(CC#Cc1ccc(C[C@@H](C(=O)O)n2cccc2)cc1)c1ccccc1 | – | 83 | 182.8 | −55.3 | 92 | 2.9 | -31
Cc1oc(-c2ccccc2)nc1CCOc1ccc(C[C@@H](C(=O)O)n2cccc2C(=O)C(F)(F)F)cc1 [drawing 233] | – | 105 | −157.2 | 113.3 | 75 | 1.7 | -1
Cc1oc(-c2ccccc2)nc1CCOc1ccc(CC(C(=O)O)c2ccc(C(F)(F)F)cc2)cc1 (stereo not drawn) | – | 107 | 246.8 | −180.4 | 78 | 0.2 | -49
Cc1oc(-c2ccccc2)nc1CCOc1ccc(C[C@@H](C(=O)O)n2ccc(-c3ccccc3)c2)cc1 [drawing 241] | – | 125 | −194.0 | 83.3 | 54 | 0.9 | 29
Cc1oc(-c2ccccc2)nc1CCOc1ccc(C[C@@H](C(=O)O)n2cccc2Cl)cc1 | – | 86 | 54.8 | −40.1 | 70 | 0.01 | -17.5
Cc1oc(-c2ccccc2)nc1CCOc1ccc(CC(C(=O)O)n2cccc2C(=O)c2ccccc2)cc1 (stereo not drawn) | – | 33 | 108.6 | −50.3 | 46 | 12.9 | –
Cc1oc(-c2ccccc2)nc1CCOc1ccc(C[C@@H](C(=O)O)c2ccccc2)cc1 [drawing 252] | – | 95 | −58.8 | 17.8 | 106 | 0.15 | -104
Cc1oc(-c2ccccc2)nc1CCOc1ccc(CC(C(=O)O)c2ccccc2)cc1 (stereo not drawn) | – | 94 | 49.2 | −35.5 | 109 | 0.3 | -48
O=C(O)[C@H](Cc1ccc(C#CCN2CCC(c3ccccc3)CC2)cc1)n1cccc1 [drawing 288] | – | 112 | – | – | 78 | 1.3 | -42
COC(=O)[C@H](Cc1ccc(/C=C/CN(C)c2ccccc2)cc1)n1cccc1 | – | 110 | – | – | 96 | 0.7 | 2

Structure (SMILES) | melting point [°C] | ADPDIFF % BRL @ 5 μM (3T3-L1 preadipocytes) [% BRL] | Glucose Δ [1] | % BRL (in vivo, beside Glucose Δ) [1] [% BRL] | MKNRCV1 % BRL @ 25 μM [2] [% BRL] | EC50 [2] [µM] | inhibition at 25 µM [3] [%]
COC(=O)[C@H](Cc1ccc(CCCN(C)c2ccccc2)cc1)n1cccc1 | – | 73 | – | – | 71 | – | -2
CN(CCOc1ccc(C[C@@H](C(=O)O)n2cccc2)cc1)c1ccnc2cc(Cl)ccc12 | – | 1 | – | – | 83 | – | -87
Cc1oc(-c2ccccc2)nc1CCOc1ccc(CC(C(=O)O)n2ccc(C(=O)C(C)C)c2)cc1 (stereo not drawn) | – | 120 | – | – | 70 | 23.6 | -10
Cc1oc(-c2ccccc2)nc1CCOc1ccc(C[C@@H](C(=O)O)n2c(C)cc(C(=O)C(F)(F)F)c2C)cc1 | – | 2 | – | – | 28 | 16 | 12
CN(CCOc1ccc(CC(C(=O)O)n2ccc(-c3ccccc3)c2)cc1)c1nc2ccccc2o1 (stereo not drawn) | – | 113 | – | – | 59 | – | -41
Cc1ccc(-c2ccccc2)n1[C@@H](Cc1ccc(OCc2ccccc2F)cc1)C(=O)O | – | 2 | – | – | 30 | – | -44
O=C(O)[C@H](Cc1ccc(OCc2ccccc2F)cc1)n1cccc1C(=O)C(F)(F)F | – | 14 | – | – | 18 | – | 28
O=C(O)[C@H](Cc1ccc(OCCSc2nc3ccccc3s2)cc1)n1cccc1 | – | 97 | 155.0 | −66.5 | 102 | 0.7 | -102
O=C(O)[C@H](Cc1ccc(OCCn2c(-c3ccccc3)nc3ccccc32)cc1)n1cccc1 | – | 19 | – | – | 39 | – | -69
Cc1oc(-c2ccccc2)nc1CCOc1ccc(C[C@@H](C(=O)NS(=O)(=O)c2ccccc2)n2cccc2)cc1 | – | 90 | – | – | 101 | 3.3 | -117
Cc1oc(-c2ccccc2)nc1CCOc1ccc(CC(F)(C(=O)O)c2ccccc2)cc1 (stereo not drawn) [drawing 216] | – | 122 | – | – | 63 | 9.5 | 37
Cc1oc(-c2ccccc2)nc1CCOc1ccc(C[C@@H](C(=O)O)n2c(C)ccc2-c2ccccc2)cc1 | – | 2 | – | – | 24 | – | -3
Cc1oc(-c2ccccc2)nc1CCOc1ccc(CC(C(=O)O)N2CCCC2=O)cc1 (stereo not drawn) | – | 0 | – | – | 29 | – | -94
Cc1oc(-c2ccccc2)nc1CCOc1ccc(C[C@H](C(=O)O)c2ccccc2)cc1 | – | 31 | – | – | 50 | – | -44
CC(=O)c1cc(C)n([C@@H](Cc2ccc(OCCc3oc(-c4ccccc4)nc3C)cc2)C(=O)O)c1C | – | 0 | – | – | 27 | – | -15
O=C(O)[C@H](Cc1ccc(OCCCc2ccncc2)cc1)n1cccc1 | – | 3 | – | – | 44 | – | 3
CC(=O)c1cccn1[C@@H](Cc1ccc(OCCc2nc(-c3ccccc3)oc2C)cc1)C(=O)O [drawing 230] | – | 89 | 12.4 | −5.1 | 60 | 3.6 | 20
Cc1oc(-c2ccccc2)nc1CCCc1ccc(C[C@@H](C(=O)O)n2cccc2)cc1 | – | 62 | −166.6 | 121.8 | 69 | – | –
